Test results as given in the NIST ThermoML archive (doi:10.1016/j.tca.2017.06.023).
± gives the expanded uncertainty stated by the source.

Assays:
[1] = xn = mol fraction of the nth substance listed; conditions: 100 kPa, Liquid; for viscosity: Capillary tube (Ostwald / Ubbelohde) method; for speed of sound: Frequency=3 MHz, Sing-around technique in a fixed-path interferometer; for mass density: Vibrating tube method
[2] = refractive index (Na D-line) (dimensionless); xn = mol fraction of the nth substance listed; conditions: 100 kPa, Liquid, Standard Abbe refractometry

CC(=O)N(C)C [N,N-dimethylethanamide] + CCC(C)O
Conditions	mass density, [1] [kg/m3]	refractive index, [2]	speed of sound, [1] [m/s]	viscosity, [1] [mPa·s]
283.15 K, x1 = 0.062	823.15 ± 0.24	1.40382 ± 0.00032	1280.8 ± 1.3	4.37 ± 0.091
283.15 K, x1 = 0.0926	827.08 ± 0.23	1.40505 ± 0.00032	1288 ± 1.3	3.888 ± 0.081
283.15 K, x1 = 0.2101	842.13 ± 0.23	1.4098 ± 0.00032	1314.5 ± 1.2	2.795 ± 0.058
283.15 K, x1 = 0.3084	854.75 ± 0.23	1.41377 ± 0.00032	1337 ± 1.2	2.363 ± 0.049
283.15 K, x1 = 0.4084	867.81 ± 0.22	1.41785 ± 0.00032	1360.1 ± 1.2	2.043 ± 0.042
283.15 K, x1 = 0.5009	880.22 ± 0.22	1.42168 ± 0.00032	1382.3 ± 1.2	1.833 ± 0.038
283.15 K, x1 = 0.6002	893.87 ± 0.22	1.42583 ± 0.00032	1407.2 ± 1.2	1.662 ± 0.035
283.15 K, x1 = 0.7001	907.96 ± 0.22	1.43002 ± 0.00032	1433 ± 1.2	1.518 ± 0.032
283.15 K, x1 = 0.8035	922.69 ± 0.21	1.43437 ± 0.00031	1461.3 ± 1.2	1.418 ± 0.029
283.15 K, x1 = 0.9004	936.39 ± 0.21	1.43847 ± 0.00031	1488.8 ± 1.2	1.318 ± 0.027
283.15 K, x1 = 0.9572	944.31 ± 0.21	1.44089 ± 0.00031	1505 ± 1.2	1.258 ± 0.026
283.15 K, x1 = 1	950.13 ± 0.21	1.44273 ± 0.00031	1516.8 ± 1.2	1.168 ± 0.024
298.15 K, x1 = 0.062	810.77 ± 0.24	1.39766 ± 0.00032	1226.5 ± 1.2	2.545 ± 0.053
298.15 K, x1 = 0.0926	814.69 ± 0.24	1.39889 ± 0.00032	1233.5 ± 1.2	2.345 ± 0.049
298.15 K, x1 = 0.2101	829.59 ± 0.23	1.40356 ± 0.00032	1259.8 ± 1.2	1.839 ± 0.038
298.15 K, x1 = 0.3084	842.09 ± 0.23	1.40746 ± 0.00032	1281.4 ± 1.2	1.593 ± 0.033
298.15 K, x1 = 0.4084	855.06 ± 0.23	1.41148 ± 0.00032	1303.8 ± 1.2	1.427 ± 0.03
298.15 K, x1 = 0.5009	867.31 ± 0.22	1.41524 ± 0.00032	1324.9 ± 1.2	1.316 ± 0.027
298.15 K, x1 = 0.6002	880.82 ± 0.22	1.41929 ± 0.00032	1349 ± 1.2	1.233 ± 0.026
298.15 K, x1 = 0.7001	894.7 ± 0.22	1.42339 ± 0.00032	1374.8 ± 1.2	1.151 ± 0.024
298.15 K, x1 = 0.8035	909.23 ± 0.21	1.42765 ± 0.00031	1402.4 ± 1.2	1.066 ± 0.022
298.15 K, x1 = 0.9004	922.74 ± 0.21	1.43165 ± 0.00031	1428.8 ± 1.2	1.02 ± 0.021
298.15 K, x1 = 0.9572	930.54 ± 0.21	1.43402 ± 0.00031	1443.3 ± 1.2	0.967 ± 0.02
298.15 K, x1 = 1	936.29 ± 0.21	1.43579 ± 0.00031	1453.7 ± 1.2	0.93 ± 0.019
313.15 K, x1 = 0.062	797.87 ± 0.24	1.39127 ± 0.00032	1172.2 ± 1.2	1.587 ± 0.033
313.15 K, x1 = 0.0926	801.76 ± 0.24	1.39248 ± 0.00032	1179.1 ± 1.2	1.501 ± 0.031
313.15 K, x1 = 0.2101	816.61 ± 0.23	1.39714 ± 0.00032	1205 ± 1.2	1.274 ± 0.027
313.15 K, x1 = 0.3084	829.07 ± 0.23	1.40103 ± 0.00032	1226.2 ± 1.2	1.146 ± 0.024
313.15 K, x1 = 0.4084	841.93 ± 0.23	1.40501 ± 0.00032	1247.8 ± 1.2	1.048 ± 0.022
313.15 K, x1 = 0.5009	854.12 ± 0.22	1.40873 ± 0.00032	1268.8 ± 1.2	0.979 ± 0.02
313.15 K, x1 = 0.6002	867.53 ± 0.22	1.41274 ± 0.00032	1292.5 ± 1.2	0.927 ± 0.019
313.15 K, x1 = 0.7001	881.27 ± 0.22	1.4168 ± 0.00032	1317.7 ± 1.2	0.888 ± 0.019
313.15 K, x1 = 0.8035	895.63 ± 0.22	1.42098 ± 0.00031	1345.2 ± 1.2	0.857 ± 0.018
313.15 K, x1 = 0.9004	909.02 ± 0.21	1.42492 ± 0.00031	1370.2 ± 1.2	0.819 ± 0.017
313.15 K, x1 = 0.9572	916.72 ± 0.21	1.42725 ± 0.00031	1384 ± 1.2	0.791 ± 0.017
313.15 K, x1 = 1	922.43 ± 0.21	1.42901 ± 0.00031	1393.3 ± 1.2	0.764 ± 0.016
